Measured values: patent US20060292657A1, “Phex substrates and methods using same” (priority 2003, published 2006)
Square brackets hold non-standard residues; d marks the D form. Primed or numbered codes have the meaning given here. Ends that are not written are not given here. Peptide text beside a SMILES is read from it. * marks the point of attachment. EDDnp = O=[N+]([O-])c1ccc(NCCN*)c([N+](=O)[O-])c1; Dnp = O=[N+]([O-])c1ccc(*)c([N+](=O)[O-])c1; Dnp′ = 2,4-dinitrophenyl; 2Abz = Nc1ccccc1C(=O)O

How the values were obtained:
Assay type in all cases: biochemical
secPHEX [1] = molecular target: T1, secPHEX (Homo sapiens, UniProt P78562); assay: secPHEX activity with NEP-specific substrate and inhibitor; conditions: 10 μM substrate, 30 minutes
T1 construct: pure soluble form of PHEX (secPHEX); made in house
T1 sequence (P78562 46-749 limits assumed): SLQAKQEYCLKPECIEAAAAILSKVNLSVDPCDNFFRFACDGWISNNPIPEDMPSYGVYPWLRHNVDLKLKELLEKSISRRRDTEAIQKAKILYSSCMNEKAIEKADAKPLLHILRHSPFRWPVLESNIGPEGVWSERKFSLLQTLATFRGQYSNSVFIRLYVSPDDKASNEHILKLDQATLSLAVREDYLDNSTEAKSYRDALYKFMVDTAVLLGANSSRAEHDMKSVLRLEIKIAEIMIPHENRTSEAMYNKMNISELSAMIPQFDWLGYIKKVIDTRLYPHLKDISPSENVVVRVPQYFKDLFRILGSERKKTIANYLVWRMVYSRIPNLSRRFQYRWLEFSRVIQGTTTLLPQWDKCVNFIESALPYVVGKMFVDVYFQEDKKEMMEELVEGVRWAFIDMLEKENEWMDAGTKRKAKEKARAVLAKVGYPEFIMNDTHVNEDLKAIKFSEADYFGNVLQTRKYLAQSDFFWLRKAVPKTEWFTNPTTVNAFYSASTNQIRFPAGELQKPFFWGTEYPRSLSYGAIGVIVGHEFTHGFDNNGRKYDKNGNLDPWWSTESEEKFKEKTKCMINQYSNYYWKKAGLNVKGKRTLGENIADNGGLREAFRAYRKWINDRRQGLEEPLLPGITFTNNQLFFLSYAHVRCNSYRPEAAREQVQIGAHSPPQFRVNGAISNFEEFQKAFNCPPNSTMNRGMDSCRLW
Description: (§1) FIG. 4 graphically illustrates the activity of PHEX in the presence of NEP-specific substrate and inhibitor. NEP, secPHEX and membrane-bound PHEX (mPHEX) activities were measured after 30 minutes of incubation in presence of either 10 μM Abz-DRRL-EDDnp (SEQ ID NO:8) (A) or 10 μM Abz-GFSDYK(Dnp)-OH (SEQ ID NO:3) (B). Fluorescence detection (AFU) at γem=420 nm and γex=320 nm was determined as described under the heading “Experimental Procedures” below. When present, thiorphan, a NEP-specific inhibitor, was at a concentration of 10^−6 M. Data are a compilation of three different experiments;
(§2) The activities of membrane-bound PHEX and secPHEX were also compared with the NEP-specific substrate Abz-DRRL-EDDnp (SEQ ID NO:8) (46).

[2] = molecular target: T2, membrane-bound PHEX (mPHEX) (Homo sapiens, UniProt P78562); assay: Membrane-bound PHEX activity with NEP-specific substrate and inhibitor; conditions: 10 μM substrate, 30 minutes
T2 construct: expressed in transfected cells; host or cells: LLC-PK1 (porcine kidney cells)
Description: as §1, §2

secPHEX [3] = molecular target: T1, secPHEX; assay: Determination of secPHEX activity and concentration in serum with fluorigenic substrate; conditions: activity determination in serum
Description: FIG. 6 graphically illustrates the secPHEX enzymatic activity on a fluorigenic substrate of the present invention in rat serum. The observed fluorescence increase was proportional to the reaction product formation. The reaction was carried out in a total volume of 200 μl constituted of buffer: 50 mM Hepes (NaOH) pH 7.4, 150 mM NaCl, 5*10−6 M captopril (ACE inhibitor), containing 10 μl of rat serum in which purified sPHEX was spiked. The enzymatic reaction was initiated by the addition of the fluorigenic substrate (Abz-GFSDYK-Dnp) (SEQ ID NO:3) at a final concentration of 20 μM. The fluorescent reaction product was excited at 320 nm and fluorescence recorded at 420 nm every four minutes over a one-hour period in a 96-well plate reader (Perkin-Elmer, HTS-7000). The initial enzymatic speed rate of the reaction was calculated for each condition. The reaction was carried out in presence of 5 mM EDTA to assess whether the assay is specific to metallopeptidase. Measurements were done in duplicates.
secPHEX enzymatic activity was determined using a fluorigenic substrate where increase of fluorescence was proportional to substrate conversion to products. […] Of these, S3 was the most preferred substrate. […]
The reaction was carried out in a total volume of 200 μl constituted of buffer (50 mM Mes(NaOH) pH 6.5, 150 mM NaCl, 5×10^−6 M captopril (ACE inhibitor)) and serum (preferably between 2 to 50 μl). […] The fluorescent reaction product is excited at 320 nm with fluoresce emission read at 420 nm every four minutes over a one-hour period using 96-well plate reader (Perikin-Elmer, HTS-7000™). The initial reaction rate was calculated from the acquired fluorescence-time data as a slope using Microsoft Excell™. PHEX Enzymatic activity (Vi) was calculated by subtracting to the initial rate of fluorescence (Vitot) with the same measured in presence of EDTA 5 mM (ViEDTA). […]
The actual secPHEX concentration was determined from a calibration curve (Vi Vs secPHEX concentration) obtained by serial dilution of secPHEX in serum or other biological media as required.

secPHEX [4] = molecular target: T1, secPHEX; assay: pH activity profile and NaCl dependence of secPHEX hydrolysis
Description: FIG. 2 graphically illustrates pH and NaCl (inset) dependence of Abz-GFSDYK(Dnp)-OH (SEQ ID NO:3) hydrolysis by secPHEX. * k,t/Km values for the hydrolysis of Abz-GFSDYK(Dnp)-OH (SEQ ID NO:3) by PHEX were determined in presence of different buffers and pH conditions as described herein under the heading “Experimental Procedures” below. In the inset, the effect of NaCl is shown: Abz-GFSDYK(Dnp)-OH (SEQ ID NO:3) was incubated with secPHEX in 0.01 M Bis-Tris buffer, pH 5.5 with NaCl (0 to 0.5 M);
The pH dependence was studied using […] of Abz-GFSDYK(Dnp)-OH (SEQ ID NO:3) over a pH range of 3.5 to 8.5. The buffers used were as follows: 0.01 M sodium acetate (3.5<pH<5.1), 0.01 M Bis-Tris (5.1<pH<6.5), 0.01 M Hepes (6.5<pH<7.4) and 0.01 M Tris-HCI (7.4<pH<8.4), containing 0.14 M NaCl. Enzymatic activity was followed at 37° C. using the continuous fluorimetric assay and the apparent second-order rate constant (*kcat/Km) was calculated as described above for each pH.
The influence of salt on secPHEX catalytic activity was investigated using 0.2 μM of Abz-GFSDYK(Dnp)-OH (SEQ ID NO:3) as substrate at 37° C., in 0.01 M Bis-Tris buffer, pH 5.5, over a NaCl range of 0 to 500 mM. The increase in fluorescence was continuously measured at 37° C. and the apparent second-order rate constant (*kcat/Km) for the different NaCl concentrations was calculated as described above.

secPHEX [5] = molecular target: T1, secPHEX; assay: IC50 determination of PHEX inhibitor, fluorigenic substrate assay
Description: secPHEX enzymatic activity was determined using a fluorigenic substrate where increase of fluorescence was proportional to substrate conversion to products. […] Of these, S3 was the most preferred substrate. S3 was synthesized as described above.
The reaction was carried out in a total volume of 200 μl constituted of buffer (50 mM Mes(NaOH) pH 6.5, 150 mM NaCl) containing various concentrations of the tested PHEX inhibitor (3×10^−5 to 1×10^−11 M) and 100 ng of purified secPHEX. The enzymatic reaction was initiated with the addition of the fluorigenic substrate at a final concentration of 10 μM. The fluorescent reaction product was excited at 320 nm with fluoresce emission read at 420 nm every four minutes over a one-hour period using 96-well plate reader (Perkin-Elmer, HTS-7000™). The initial reaction rate was calculated from the acquired fluorescence-time data as a slope using Microsoft Excell™. Further examples can be found in the co-pending PCT application number PCT/CA03/01893.
IC50 was determined with a plot of the initial rates computed above as a function of inhibitor concentration using the one site competition equation of GraphPad Prism™ version 3.03 (GraphPad™ Software Inc.).

T2 sequence (P78562 whole entry): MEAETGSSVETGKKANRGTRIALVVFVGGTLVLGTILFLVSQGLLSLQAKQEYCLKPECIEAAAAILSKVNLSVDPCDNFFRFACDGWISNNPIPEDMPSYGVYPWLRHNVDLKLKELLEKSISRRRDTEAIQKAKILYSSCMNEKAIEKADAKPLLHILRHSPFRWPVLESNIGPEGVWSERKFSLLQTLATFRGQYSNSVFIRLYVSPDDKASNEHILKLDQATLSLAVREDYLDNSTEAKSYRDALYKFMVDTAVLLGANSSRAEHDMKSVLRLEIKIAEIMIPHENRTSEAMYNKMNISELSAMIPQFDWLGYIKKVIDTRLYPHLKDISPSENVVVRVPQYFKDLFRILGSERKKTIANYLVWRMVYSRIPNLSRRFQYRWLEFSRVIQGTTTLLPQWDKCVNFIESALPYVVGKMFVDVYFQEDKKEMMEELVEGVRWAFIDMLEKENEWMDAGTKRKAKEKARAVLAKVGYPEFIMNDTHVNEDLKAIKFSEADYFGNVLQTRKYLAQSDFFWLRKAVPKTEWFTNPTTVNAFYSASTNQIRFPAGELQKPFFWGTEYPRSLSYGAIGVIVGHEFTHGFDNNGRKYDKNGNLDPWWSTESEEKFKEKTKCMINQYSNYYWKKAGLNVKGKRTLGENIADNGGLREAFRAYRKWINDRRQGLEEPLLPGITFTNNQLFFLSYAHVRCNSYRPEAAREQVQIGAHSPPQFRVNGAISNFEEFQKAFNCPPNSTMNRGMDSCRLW

Molecule	hydrolysis of NEP-specific substrate (secPHEX [1])	hydrolysis of NEP-specific substrate [2]	suitability as secPHEX substrate (secPHEX [3])	kcat/Km with 150 mM NaCl lower than in the absence of added salt (secPHEX [4]; 10 mM Bis Tris, pH 5,5)	pH of maximum kcat/Km (secPHEX [4]; pH range of 3.5 to 8.5, 37° C.)	suitability as secPHEX substrate (secPHEX [5])
CC(C)C[C@H](NC(=O)[C@H](CCCNC(=N)N)NC(=O)[C@H](CCCNC(=N)N)NC(=O)[C@H](CC(=O)O)NC(=O)c1ccccc1N)C(=O)NCCNc1ccc([N+](=O)[O-])cc1[N+](=O)[O-] [Abz-DRRL-EDDnp] (H-[2Abz]DRRL-EDDnp)	Neither enzyme hydrolyzed this substrate	Neither enzyme hydrolyzed this substrate	–	–	–	–
Nc1ccccc1C(=O)NCC(=O)N[C@@H](Cc1ccccc1)C(=O)N[C@@H](CO)C(=O)N[C@@H](CC(=O)O)C(=O)N[C@@H](Cc1ccc(O)cc1)C(=O)N[C@@H](CCCCNc1ccc([N+](=O)[O-])cc1[N+](=O)[O-])C(=O)O [I-Abz-GFS↓DYK(Dnp)-OH, Abz-GFSDYK(Dnp)-OH] (H-[2Abz]GFSDYK(Dnp)-OH)	–	–	good secPHEX substrate	more than 2 fold	~5.5	good secPHEX substrate
CC(C)C[C@H](NC(=O)[C@H](Cc1c[nH]cn1)NC(=O)[C@H](CC(=O)O)NC(=O)c1ccccc1N)C(=O)N[C@@H](CO)C(=O)N[C@@H](CC(=O)O)C(=O)N[C@H](C(=O)N[C@@H](CO)C(=O)N[C@H](C(=O)N[C@@H](CCC(N)=O)C(=O)NCCNc1ccc([N+](=O)[O-])cc1[N+](=O)[O-])[C@@H](C)O)[C@@H](C)O [I-Abz-D125-HLS↓DTSTQ-EDDnp, Abz-DHLSDTSTQ-edDnp] (H-[2Abz]DHLSDTSTQ-EDDnp)	–	–	good secPHEX substrate	–	–	good secPHEX substrate
Abz-GFRDWK-Dnp ([2Abz]GFRDWK-{Dnp′}) [S1]	–	–	good secPHEX substrate	–	–	good secPHEX substrate
